Experiment: Stability test in solution (pH 1.2 and pH 6.5)
Type: physicochemical
Settings: 1 hour; for Compound's percent residue (%) pH 6.5: 20 mM phosphate buffer pH 6.5, 37° C.; for Compound's percent residue (%) pH 1.2: hydrochloric acid solution pH 1.2, 37° C.
Method: Test 2: Stability Test in Solution
A test to determine the stability of Inventive Compounds (I-A) or (I) in a hydrochloric acid solution (pH 1.2) and 20 mM phosphate buffer (pH 6.5) was conducted in accordance with the following method.
A compound was dissolved in a hydrochloric acid solution (pH 1.2) containing hydrochloric acid and sodium chloride or a 20 mM phosphate buffer (pH 6.5) containing disodium hydrogenphosphate, sodium dihydrogenphosphate and sodium chloride to prepare a solution with a concentration of about 50 ng/mL (near the saturated concentration when the compound was not dissolved). The solution was incubated at 37° C. for 1 hour and the compound's concentration before and after the incubation was quantified by high-performance liquid chromatography to calculate the percent residue of the compound. Compounds having low solubility were assessed as being not applicable.
The percent residues of representative compounds in the hydrochloric acid solution (pH 1.2) and the 20 mM phosphate buffer (pH 6.5) are shown in the following Table 2.

## CC(OC(=O)O[C@H]1C[C@H]2CC[C@]1(C)C2(C)C)OC(=O)[C@@]1(N)[C@H]2[C@@H](C[C@H]1OCc1ccc(F)cc1)[C@]2(F)C(=O)O (stereo partly drawn) [Example 19-A, (1R,2R,3R,5R,6R)-2-Amino-6-fluoro-3-[(4-fluorophenyl)methoxy]-2-({1-[({[(1R,2S,4R)-1,7,7-trimethylbicyclo[2.2.1]heptan-2-yl]oxy}carbonyl)oxy]ethoxy}carbonyl)bicyclo[3.1.0]hexane-6-carboxylic acid]
  Compound's percent residue (%) pH 6.5: 99%
  Compound's percent residue (%) pH 1.2: 98%

## CCCO[C@@H]1C[C@@H]2[C@H]([C@]1(N)C(=O)OC(C)OC(=O)O[C@@H]1C[C@@H]3CC[C@@]1(C)C3(C)C)[C@@]2(F)C(=O)O (single isomer, unassigned) [Example 18-A]
  Compound's percent residue (%) pH 6.5: 103%
  Compound's percent residue (%) pH 1.2: 107%

## CC(C)[C@@H]1CC[C@@H](C)C[C@H]1OC(=O)O[C@H](C)OC(=O)[C@@]1(N)[C@H]2[C@@H](C[C@H]1OCc1ccc(F)cc1)[C@@H]2C(=O)O [Example 39, (1S,2R,3R,5R,6S)-2-amino-3-[(4-fluorophenyl)methoxy]-2-({(1R)-1-[({[(1R,2S,5R)-5-methyl-2-(propan-2-yl)cyclohexyl]oxy}carbonyl)oxy]ethoxy}carbonyl)bicyclo[3.1.0]hexane-6-carboxylic acid]
  Compound's percent residue (%) pH 1.2: 97%

## CCCO[C@@H]1C[C@@H]2[C@H]([C@]1(N)C(=O)O[C@H](C)OC(=O)O[C@@H]1C[C@H](C)CC[C@H]1C(C)C)[C@@]2(F)C(=O)O [Example 14, (1R,2R,3R,5R,6R)-2-Amino-6-fluoro-2-({(1S)-1-[({[(1R,2S,5R)-5-methyl-2-(propan-2-yl)cyclohexyl]oxy}carbonyl)oxy]ethoxy}carbonyl)-3-propoxybicyclo[3.1.0]hexane-6-carboxylic acid]
  Compound's percent residue (%) pH 6.5: 97%
  Compound's percent residue (%) pH 1.2: 97%

## C[C@@H](OC(=O)C12CC3CC(CC(C3)C1)C2)OC(=O)[C@@]1(N)[C@H]2[C@@H](C[C@H]1OC1CCCC1)[C@]2(F)C(=O)O [Example 30, (1R,2R,3R,5R,6R)-2-amino-3-(cyclopentyloxy)-6-fluoro-2-({(1S)-1-[(tricyclo[3.3.1.1^3,7]decane-1-carbonyl)oxy]ethoxy}carbonyl)bicyclo[3.1.0]hexane-6-carboxylic acid]
  Compound's percent residue (%) pH 6.5: 102%
  Compound's percent residue (%) pH 1.2: 100%

## C[C@@H](OC(=O)C12CC3CC(CC(C3)C1)C2)OC(=O)[C@@]1(N)[C@H]2[C@@H](C[C@H]1OCc1ccc(Cl)nc1)[C@]2(F)C(=O)O [Example 27, (1R,2R,3R,5R,6R)-2-amino-3-[(6-chloropyridin-3-yl)methoxy]-6-fluoro-2-({(1S)-1-[(tricyclo[3.3.1.1^3,7]decane-1-carbonyl)oxy]ethoxy}carbonyl)bicyclo[3.1.0]hexane-6-carboxylic acid]
  Compound's percent residue (%) pH 6.5: 101%
  Compound's percent residue (%) pH 1.2: 100%

## CC(C)[C@@H]1CC[C@@H](C)C[C@H]1OC(=O)O[C@@H](C)OC(=O)[C@@]1(N)[C@H]2[C@@H](C[C@H]1OCc1ccc(F)cc1)[C@]2(F)C(=O)O [Example 2, (1R,2R,3R,5R,6R)-2-Amino-6-fluoro-3-[(4-fluorophenyl)methoxy]-2-({(1S)-1-[({[(1R,2S,5R)-5-methyl-2-(propan-2-yl)cyclohexyl]oxy}carbonyl)oxy]ethoxy}carbonyl)bicyclo[3.1.0]hexane-6-carboxylic acid]
  Compound's percent residue (%) pH 6.5: 104%

## CCCO[C@@H]1C[C@@H]2[C@H]([C@]1(N)C(=O)OC(C)OC(=O)O[C@H]1C[C@H]3CC[C@]1(C)C3(C)C)[C@@]2(F)C(=O)O (stereo partly drawn) [Example 20, (1R,2R,3R,5R,6R)-2-Amino-6-fluoro-3-propoxy-2-({1-[({[(1R,2S,4R)-1,7,7-trimethylbicyclo[2.2.1]heptan-2-yl]oxy}carbonyl)oxy]ethoxy}carbonyl)bicyclo[3.1.0]hexane-6-carboxylic acid]
  Compound's percent residue (%) pH 6.5: 100%
  Compound's percent residue (%) pH 1.2: 106%

## N[C@]1(C(=O)OCOC(=O)C23CC4CC(CC(C4)C2)C3)[C@H]2[C@@H](C[C@H]1OCc1ccc(F)cc1)[C@]2(F)C(=O)O [Example 7, (1R,2R,3R,5R,6R)-2-Amino-6-fluoro-3-[(4-fluorophenyl)methoxy]-2-({[(tricyclo[3.3.1.1^3,7]decane-1-carbonyl)oxy]methoxy}carbonyl)bicyclo[3.1.0]hexane-6-carboxylic acid]
  Compound's percent residue (%) pH 6.5: 106%
  Compound's percent residue (%) pH 1.2: 101%

## CC(OC(=O)O[C@@H]1C[C@@H]2CC[C@@]1(C)C2(C)C)OC(=O)[C@@]1(N)[C@H]2[C@@H](C[C@H]1OCc1ccc(F)cc1)[C@]2(F)C(=O)O (single isomer, unassigned) [Example 17-A]
  Compound's percent residue (%) pH 6.5: 97%
  Compound's percent residue (%) pH 1.2: 104%

## CC(OC(=O)O[C@@H]1C[C@@H]2CC[C@@]1(C)C2(C)C)OC(=O)[C@@]1(N)[C@H]2[C@@H](C[C@H]1OCc1ccc(F)cc1)[C@]2(F)C(=O)O (stereo partly drawn) [Example 17-B, (1R,2R,3R,5R,6R)-2-Amino-6-fluoro-3-[(4-fluorophenyl)methoxy]-2-({1-[({[(1S,2R,4S)-1,7,7-trimethylbicyclo[2.2.1]heptan-2-yl]oxy}carbonyl)oxy]ethoxy}carbonyl)bicyclo[3.1.0]hexane-6-carboxylic acid]
  Compound's percent residue (%) pH 6.5: 100%
  Compound's percent residue (%) pH 1.2: 106%

## CC(C)CCO[C@@H]1C[C@@H]2[C@H]([C@]1(N)C(=O)O[C@@H](C)OC(=O)C13CC4CC(CC(C4)C1)C3)[C@@]2(F)C(=O)O [Example 29, (1R,2R,3R,5R,6R)-2-amino-6-fluoro-3-(3-methylbutoxy)-2-({(1S)-1-[(tricyclo[3.3.1.1^3,7]decane-1-carbonyl)oxy]ethoxy}carbonyl)bicyclo[3.1.0]nexane-6-carboxylic acid]
  Compound's percent residue (%) pH 6.5: 103%
  Compound's percent residue (%) pH 1.2: 102%

## CC(C)[C@@H]1CC[C@@H](C)C[C@H]1OC(=O)O[C@H](C)OC(=O)[C@@]1(N)[C@H]2[C@@H](C[C@H]1OCc1ccc(F)cc1)[C@]2(F)C(=O)O [Example 1, (1R,2R,3R,5R,6R)-2-amino-6-fluoro-3-[(4-fluorophenyl)methoxy]-2-({(1R)-1-[({[(1R,2S,5R)-5-methyl-2-(propan-2-yl)cyclohexyl]oxy}carbonyl)oxy]ethoxy}carbonyl)bicyclo[3.1.0]hexane-6-carboxylic acid]
  Compound's percent residue (%) pH 6.5: 103%
  Compound's percent residue (%) pH 1.2: 109%

## CC(OC(=O)O[C@H]1C(C)(C)[C@H]2CC[C@]1(C)C2)OC(=O)[C@@]1(N)[C@H]2[C@@H](C[C@H]1OCc1ccc(F)cc1)[C@]2(F)C(=O)O (stereo partly drawn) [Example 21, (1R,2R,3R,5R,6R)-2-Amino-6-fluoro-3-[(4-fluorophenyl)methoxy]-2-({1-[({[(1R,2R,4S)-1,3,3-trimethylbicyclo[2.2.1]heptan-2-yl]oxy}carbonyl)oxy]ethoxy}carbonyl)bicyclo[3.1.0]hexane-6-carboxylic acid]
  Compound's percent residue (%) pH 6.5: 98%
  Compound's percent residue (%) pH 1.2: 101%
